Data: patent US20080213248A1, “Methods and Systems for Treating Asthma and Other Respiratory Diseases” (UNIVERSITY OF FLORIDA RESEARCH FOUNDATION, INC., priority 2004, published 2008)
Each block holds one compound with its values, some of them ahead of it.

Key:
[1] = biological target: TRPM8 receptors; conditions: previous in vitro studies; read-out: antagonistic potencies (IC50) for TRPM8 receptors; cited from earlier work
[2] = system: vagus ganglion neurons (VGNs); assay: Whole-cell patch-clamp recordings (voltage-clamp and current-clamp) on menthol-responsive VGNs; type: cell-based, rat
[3] = system: rats; assay: Inhalation of menthol, respiratory reaction; type: in vivo, rat
[4] = system: vagus ganglion neurons (VGNs); assay: Ca2+ imaging (Fluo-3) of acutely dissociated vagus ganglion neurons; type: cell-based, rat
Protocol: In one embodiment, retrograde labeling of vagus ganglions or bronchopulmonary tissues is performed on a murine or rat model. […] Instillation of the nerve tracing dye in the lower part of mice trachea was performed and, after 7 days, the mice (or rats) were sacrificed and the vagus ganglions were harvested, dissociated, and plated in dishes. Calcium-imaging approach was then used to identify bronchopulmonary vagus afferent neuron response to cold and menthol. […] All the data were represented as mean ±SEM. Paired-t tests were used for statistical comparison, and significance was considered at the p<0.05. To perform calcium imaging, VGNs were incubated with 2 μM Fluo3-AM in 20% pluronic acid (Molecular Probes, Eugene, Oreg.) for 30 min at 37° C. to load Ca^2+ indicator. The cells were then perfused with normal bath solution flowing at 1 ml/min in a 0.5 ml chamber. The normal bath solution contained (in mM): 150 NaCl, 5 KCl, 2 MgCl2, 2 CaCl2, 10 glucose, 10 HEPES, pH 7.2, osmolarity adjusted to 320 mOsm with sucrose. Fluo-3 fluorescence in the cells was detected using a peltier-cooled charge-coupled device (CCD) camera (PentaMAX-III System, Roper Scientific, Trenton, N.J.) under a fluorescent microscope (10× objective). Excitation was at 450 nm and emission at 550 nm, achieved by a fluorescence filter sets. Images were taken at one frame per second, and digitized using MetaFluor software (Universal Imaging Corporation). Unless otherwise indicated, all experiments were carried out at an ambient temperature of 26° C. Effects of cold on intracellular Ca^2+ levels were tested by application of a cold bath solution, which yield temperature drop from 26° C. to 19° C. within 1 min in the recording chamber. […] In a related embodiment, Adult Sprague-Dawley rats (200 to 300 g, n=48) were used according to the Institutional Animal Care and Use Committee guideline of the University of Florida. The rats were continuously anesthetized with isoflurane using an anaesthetizing machine. To retrograde label the vagus ganglion neurons that innervate low airway tissues, a 20 μl-DiI was instilled into the caudal region of the trachea in living adult rats (see FIG. 1a, which illustrates the instillation of DiI into the lower segment of rat trachea to retrograde label airway VGNs). The animals were positioned supine during dye instillation and kept the same position for 30 min before recovery from anesthesia. […] The neurons were plated on glass coverslips previously covered with PDL and used within 4 hours after plating.

[5] = biological target: T1, TRPM8 receptors (Rattus norvegicus, UniProt Q8R455); assay: TRPM8 expression in cultured sensory neurons in the presence of NGF; type: cell-based; conditions: NGF present
T1 construct: increase in number of TRPM8-expressing neurons in cell culture when in the presence of nerve growth factor (NGF); endogenous in cells; host or cells: cultured sensory neurons
Excerpt: Inflammation in lung tissues often can result in the increases the levels of nerve growth factor (NGF). […] Upregulation of TRPM8 receptors on these nerves can sensitize their responses to cold stimulation. FIGS. 8a and 8b illustrate the numbers of TRPM8 expression neurons and the responsiveness of these neurons to the TRPM8 ligand menthol. Specifically, FIG. 8a is a graphical illustration of an increase in number of TRPM8-expressing neurons in cell culture when in the presence of nerve growth factor (NGF). […] is a graphical illustration of the response of TRPM8-expressing neurons to the TRPM8 receptor agonist menthol when cultured in the presence or absence of NGF. The one day cultures were used in the absence of NGF.
Inflammatory reactions in bronchopulmonary tissues of asthma animals are known to result in an increased level of nerve growth factor (NGF). […] An up-regulation of TRPM8 receptors in inflammatory bronchopulmonary tissues will make animals more susceptible to cold.

T1 sequence (Q8R455 whole entry): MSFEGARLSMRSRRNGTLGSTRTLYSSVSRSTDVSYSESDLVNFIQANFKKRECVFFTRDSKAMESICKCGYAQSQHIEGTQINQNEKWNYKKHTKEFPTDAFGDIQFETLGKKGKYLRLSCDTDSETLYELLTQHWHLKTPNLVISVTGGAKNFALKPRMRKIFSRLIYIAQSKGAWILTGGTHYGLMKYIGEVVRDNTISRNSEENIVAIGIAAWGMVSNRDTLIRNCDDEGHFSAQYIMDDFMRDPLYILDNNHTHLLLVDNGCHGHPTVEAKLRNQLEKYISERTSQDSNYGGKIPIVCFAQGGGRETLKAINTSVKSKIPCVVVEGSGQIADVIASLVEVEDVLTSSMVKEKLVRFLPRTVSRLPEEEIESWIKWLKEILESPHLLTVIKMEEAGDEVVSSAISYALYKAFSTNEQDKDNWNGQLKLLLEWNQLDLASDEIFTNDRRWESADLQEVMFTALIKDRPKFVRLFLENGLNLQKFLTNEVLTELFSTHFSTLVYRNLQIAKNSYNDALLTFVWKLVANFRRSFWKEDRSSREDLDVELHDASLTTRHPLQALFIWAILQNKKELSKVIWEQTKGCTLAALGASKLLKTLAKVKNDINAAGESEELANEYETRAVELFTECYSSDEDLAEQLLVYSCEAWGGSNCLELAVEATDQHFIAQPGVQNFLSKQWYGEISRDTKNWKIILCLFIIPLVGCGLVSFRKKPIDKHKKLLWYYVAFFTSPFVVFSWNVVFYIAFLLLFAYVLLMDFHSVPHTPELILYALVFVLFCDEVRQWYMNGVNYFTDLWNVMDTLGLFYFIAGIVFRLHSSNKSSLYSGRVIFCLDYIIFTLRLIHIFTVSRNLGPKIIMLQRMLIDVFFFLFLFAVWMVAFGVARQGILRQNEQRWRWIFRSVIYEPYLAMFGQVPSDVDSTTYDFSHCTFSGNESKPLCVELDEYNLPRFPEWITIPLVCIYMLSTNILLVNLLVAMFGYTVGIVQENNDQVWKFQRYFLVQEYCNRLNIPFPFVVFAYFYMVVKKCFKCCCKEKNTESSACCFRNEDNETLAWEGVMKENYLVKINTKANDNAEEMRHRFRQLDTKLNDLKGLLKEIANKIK

Compound: NCCOB(c1ccccc1)c1ccccc1 [2-APB, 2-aminoethoxydiphenyl borate]
IC50 [1]: ~50 µM

respiratory reaction on inhalation ([3]; menthol 1 μM): respiratory reaction is not obvious
respiratory reaction on inhalation ([3]; menthol 1 mM, n=3): results in a breathing difficulty
Compound: CC1CCC(C(C)C)C(O)C1 (stereo not shown) [menthol]
membrane potential after depolarization by menthol ([2]; menthol 100 μM, 20 s, current-clamp, from resting potential 60±0.6 mV, n=4): 38±1.5 mV
menthol-evoked inward current ([2]; menthol 100 μM, 20 s, voltage-clamp, held at −70 mV, n=7): 191±29 pA
action potential firing ([2]; menthol 100 μM, current-clamp): action potentials elicited
action potential firing ([2]; menthol 100 μM, current-clamp, listed as Menthol): caused action potential firing
reversal potential of menthol-evoked currents ([2]; voltage ramp, strong outward rectification, n=4): −2±0.3 mV
DiI-labeled cells both menthol- and cold-responsive ([4]; 27 of 170 DiI-labeled cells, menthol 100 μM, cold 26 to 19° C.): 16%
DiI-labeled cells showing response to menthol ([4]; menthol 100 μM, 20 s, 28 of 170 DiI-labeled cells): 17%
VGNs with increases of intracellular Ca2+ ([4]; menthol 100 μM, 20 s, 116/1638 cells, DiI-labeled and non-labeled, response ΔF/F0 >0.1): 7%

TRPM8 receptor expression [5]: up-regulated
Compound: NGF: nerve growth factor

Compound: Nc1ncnc2c1ncn2[C@@H]1O[C@H](COP(=O)(O)OP(=O)(O)OP(=O)(O)O)[C@@H](O)[C@H]1O [ATP]
ATP sensitivity of menthol-responsive VGNs ([4]; Ca2+ imaging, menthol and ATP responses): almost all menthol-responsive VGNs were ATP-sensitive

Compound: CC(C)(C)c1ccc(NC(=O)N2CCN(c3ncccc3Cl)CC2)cc1 [BCTC, N-(4-Tertiarybutylphenyl)-4-(3-cholorphyridin-2-yl)tetrahydropyrazine-1(2H)-carbox-amide]
IC50 [1]: 0.8 ± 1 µM

Compound: Oc1cc2c(cc1O)CN(C(=S)NCCc1ccc(Cl)cc1)CCC2 [capsazepine]
IC50 [1]: 18 ± 1.1 µM

Compound: CC(C)(C)c1ccc(NC(=S)N2CCN(c3ncccc3Cl)CC2)cc1 [thio-BCTC]
IC50 [1]: 3.5 ± 1.1 µM
